The values below are quoted from earlier work in patent US9493497B2, “Carbamate glycolipid and use thereof” (RIKEN, priority 2012, dated 2016).

Molecules are shown by their SMILES.

Assay in series [1]: not given
This is another data set of the same source.

For `CCCCCCCCCCCCCCCCCCCCCCCCCC(=O)N[C@@H](CO[C@H]1OC(CO)[C@H](O)C(O)C1O)[C@H](O)[C@H](O)CCCCCCCCCCCCCC` (stereo partly shown) [KRN7000], in the series with tumor, the anti-tumor activity entry is recorded as “extremely strong anti-tumor activity”.

Take `CCCCCCCC/C=C\CCCCCCCCCCCCCC(=O)N[C@@H](CO[C@H]1OC(CNC(C)=O)[C@H](O)[C@H](O)C1O)[C@H](O)[C@H](O)CCCCCCCCCCCCCC` (stereo partly shown) [PBS-57]: the “solubility in DMSO” value is reported as “improved solubility in DMSO”.

In the case of `CCCCCCCCCCCCCCCCCCCCCCCCCC(=O)N[C@@H](CO[C@H]1CC(CO)[C@H](O)[C@H](O)C1O)[C@H](O)[C@H](O)CCCCCCCCCCCCCC` (stereo partly shown) [RCAI-56], the “NKT cell activation / IFN-γ production induction” value with NKT cells is “strongly activates NKT cells and induces production of a large amount of IFN-γ”.

Regarding `CCCCCCCCCCCCCCCCCCCCCCCCCC(=O)N[C@@H](CO[C@H]1O[C@H](COC)[C@H](O)[C@H](O)[C@H]1O)[C@H](O)[C@H](O)CCCCCCCCCCCCCC` [RCAI-61], in the series with NKT cells, the “NKT cell activation / IFN-γ production induction” value is recorded as “induces production of IFN-γ in large amounts”. The solubility in water result in series [1] was “low solubility in water”.

Regarding `CCCCCCCCCCCCCCCCCCCCCCCCCC(=O)N[C@@H](CC[C@H]1OC(CO)[C@H](O)C(O)C1O)[C@H](O)[C@H](O)CCCCCCCCCCCCCC` (stereo partly drawn) [α-C-GalCer], the “activation of NKT cells of mouse” value in the series with NKT cells of mouse is “strongly activates NKT cells of mouse and preferentially produces IFN-γ”. In the series with human NKT cells, the “cytokine production in human NKT cells” value is reported as “scarcely induces cytokine production”.
